# Reference: PubChem BioAssay (NCI)
#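 GI50 = concentration required for 50% inhibition of growth. TGI denotes the concentration required for complete inhibition of growth.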
# Assays:
# Test in all cases: NCI anticancer screen, dose series, 384-well format
# 786-0 renal = system: 786-0 renal
# A498 renal = system: A498 renal
# A549 NSCLC = system: A549 NSCLC
# ACHN renal = system: ACHN renal
# BT-549 breast = system: BT-549 breast
# CAKI-1 renal = system: CAKI-1 renal
# CCRF-CEM leukemia = system: CCRF-CEM leukemia
# COLO 205 colon = system: COLO 205 colon
# DU-145 prostate = system: DU-145 prostate
# HCC-2998 colon = system: HCC-2998 colon
# HCT-15 colon = system: HCT-15 colon
# HL-60(TB) leukemia = system: HL-60(TB) leukemia
# HOP-62 NSCLC = system: HOP-62 NSCLC
# HOP-92 NSCLC = system: HOP-92 NSCLC
# HS 578T breast = system: HS 578T breast
# HT29 colon = system: HT29 colon
# IGROV1 ovarian = system: IGROV1 ovarian
# K-562 leukemia = system: K-562 leukemia
# KM12 colon = system: KM12 colon
# LOX IMVI melanoma = system: LOX IMVI melanoma
# M14 melanoma = system: M14 melanoma
# MALME-3M melanoma = system: MALME-3M melanoma
# MCF7 breast = system: MCF7 breast
# MDA-MB-231 breast = system: MDA-MB-231 breast
# MDA-MB-435 melanoma = system: MDA-MB-435 melanoma
# MDA-MB-468 breast = system: MDA-MB-468 breast
# MOLT-4 leukemia = system: MOLT-4 leukemia
# NCI-H226 lung = system: NCI-H226 lung
# NCI-H23 lung = system: NCI-H23 lung
# NCI-H322M lung = system: NCI-H322M lung
# NCI-H460 NSCLC = system: NCI-H460 NSCLC
# NCI-H522 lung = system: NCI-H522 lung
# NCI/ADR-RES ovarian = system: NCI/ADR-RES ovarian
# OVCAR-3 ovarian = system: OVCAR-3 ovarian
# OVCAR-4 ovarian = system: OVCAR-4 ovarian
# OVCAR-5 ovarian = system: OVCAR-5 ovarian
# OVCAR-8 ovarian = system: OVCAR-8 ovarian
# PC-3 prostate = system: PC-3 prostate
# RPMI-8226 leukemia = system: RPMI-8226 leukemia
# RXF 393 renal = system: RXF 393 renal
# SF-268 CNS = system: SF-268 CNS
# SF-295 CNS = system: SF-295 CNS
# SF-539 CNS = system: SF-539 CNS
# SK-MEL-28 melanoma = system: SK-MEL-28 melanoma
# SK-MEL-5 melanoma = system: SK-MEL-5 melanoma
# SK-OV-3 ovarian = system: SK-OV-3 ovarian
# SN12C renal = system: SN12C renal
# SNB-19 CNS = system: SNB-19 CNS
# SNB-75 CNS = system: SNB-75 CNS
# SR leukemia = system: SR leukemia
# SW-620 colon = system: SW-620 colon
# T-47D breast = system: T-47D breast
# TK-10 renal = system: TK-10 renal
# U251 glioblastoma = system: U251 glioblastoma
# UACC-62 melanoma = system: UACC-62 melanoma
# UO-31 renal = system: UO-31 renal
# EKVX NSCLC = system: EKVX NSCLC
# UACC-257 melanoma = system: UACC-257 melanoma
compound,measurement,setting,value
Cc1cc2c(F)c(Oc3ncnn4cc(OC[C@@H](C)OC(=O)[C@H](C)N)c(C)c34)ccc2[nH]1,GI50,786-0 renal,3.54 µM
same,GI50,A498 renal,5.04 µM
same,GI50,A549 NSCLC,4.99 µM
same,TGI,A549 NSCLC,17.7 µM
same,GI50,ACHN renal,2.97 µM
same,GI50,BT-549 breast,3.65 µM
same,TGI,BT-549 breast,15.3 µM
same,GI50,CAKI-1 renal,3.65 µM
same,TGI,CAKI-1 renal,16.4 µM
same,GI50,CCRF-CEM leukemia,1.84 µM
same,TGI,CCRF-CEM leukemia,6.14 µM
same,GI50,COLO 205 colon,0.847 µM
same,TGI,COLO 205 colon,12.7 µM
same,GI50,DU-145 prostate,3.74 µM
same,GI50,HCC-2998 colon,3.59 µM
same,GI50,HCT-15 colon,0.914 µM
same,TGI,HCT-15 colon,3.46 µM
same,GI50,HL-60(TB) leukemia,1.04 µM
same,TGI,HL-60(TB) leukemia,3.2 µM
same,GI50,HOP-62 NSCLC,6.64 µM
same,TGI,HOP-62 NSCLC,20.3 µM
same,GI50,HOP-92 NSCLC,4.17 µM
same,TGI,HOP-92 NSCLC,17.3 µM
same,GI50,HS 578T breast,6.21 µM
same,TGI,HS 578T breast,17.7 µM
same,GI50,HT29 colon,2.77 µM
same,TGI,HT29 colon,12 µM
same,GI50,IGROV1 ovarian,4.71 µM
same,GI50,K-562 leukemia,1.04 µM
same,TGI,K-562 leukemia,3.18 µM
same,GI50,KM12 colon,3.17 µM
same,TGI,KM12 colon,13.8 µM
same,GI50,LOX IMVI melanoma,1.43 µM
same,TGI,LOX IMVI melanoma,3.81 µM
same,GI50,M14 melanoma,4.9 µM
same,TGI,M14 melanoma,17.4 µM
same,GI50,MALME-3M melanoma,2.07 µM
same,TGI,MALME-3M melanoma,12.5 µM
same,GI50,MCF7 breast,3.45 µM
same,TGI,MCF7 breast,16.7 µM
same,GI50,MDA-MB-231 breast,1.82 µM
same,TGI,MDA-MB-231 breast,18.2 µM
same,GI50,MDA-MB-435 melanoma,7.77 µM
same,GI50,MDA-MB-468 breast,2.16 µM
same,TGI,MDA-MB-468 breast,5.55 µM
same,GI50,MOLT-4 leukemia,0.272 µM
same,TGI,MOLT-4 leukemia,0.612 µM
same,GI50,NCI-H226 lung,4.33 µM
same,TGI,NCI-H226 lung,18 µM
same,GI50,NCI-H23 lung,10.1 µM
same,TGI,NCI-H23 lung,21.7 µM
same,GI50,NCI-H322M lung,7.3 µM
same,TGI,NCI-H322M lung,19.7 µM
same,GI50,NCI-H460 NSCLC,0.643 µM
same,TGI,NCI-H460 NSCLC,4.37 µM
same,GI50,NCI-H522 lung,4.57 µM
same,GI50,NCI/ADR-RES ovarian,3.52 µM
same,GI50,OVCAR-3 ovarian,6.03 µM
same,GI50,OVCAR-4 ovarian,7.98 µM
same,GI50,OVCAR-5 ovarian,8.29 µM
same,GI50,OVCAR-8 ovarian,4.41 µM
same,TGI,OVCAR-8 ovarian,17.2 µM
same,GI50,PC-3 prostate,3.17 µM
same,GI50,RPMI-8226 leukemia,0.467 µM
same,TGI,RPMI-8226 leukemia,1.94 µM
same,GI50,RXF 393 renal,3.75 µM
same,TGI,RXF 393 renal,14.2 µM
same,GI50,SF-268 CNS,3.4 µM
same,TGI,SF-268 CNS,16.8 µM
same,GI50,SF-295 CNS,3.24 µM
same,TGI,SF-295 CNS,12.8 µM
same,GI50,SF-539 CNS,2.25 µM
same,TGI,SF-539 CNS,10.9 µM
same,GI50,SK-MEL-28 melanoma,3.29 µM
same,TGI,SK-MEL-28 melanoma,17.5 µM
same,GI50,SK-MEL-5 melanoma,0.984 µM
same,GI50,SK-OV-3 ovarian,5.13 µM
same,GI50,SN12C renal,4.53 µM
same,GI50,SNB-19 CNS,5.13 µM
same,GI50,SNB-75 CNS,4.41 µM
same,TGI,SNB-75 CNS,17.1 µM
same,GI50,SR leukemia,0.0548 µM
same,TGI,SR leukemia,0.241 µM
same,GI50,SW-620 colon,4.96 µM
same,TGI,SW-620 colon,17.7 µM
same,GI50,T-47D breast,3.34 µM
same,GI50,TK-10 renal,2.27 µM
same,GI50,U251 glioblastoma,3.67 µM
same,GI50,UACC-62 melanoma,3.13 µM
same,TGI,UACC-62 melanoma,17.5 µM
same,GI50,UO-31 renal,6.25 µM
O=C(NOCC1CC1)c1ccc(F)c(F)c1Nc1ccc(I)cc1Cl,GI50,786-0 renal,1.86 µM
same,TGI,786-0 renal,9.93 µM
same,GI50,A498 renal,1.69 µM
same,TGI,A498 renal,12.2 µM
same,GI50,A549 NSCLC,1.03 µM
same,TGI,A549 NSCLC,3.84 µM
same,GI50,ACHN renal,1.66 µM
same,TGI,ACHN renal,15.4 µM
same,GI50,BT-549 breast,2.73 µM
same,TGI,BT-549 breast,14.8 µM
same,GI50,CAKI-1 renal,1.03 µM
same,TGI,CAKI-1 renal,3.07 µM
same,GI50,CCRF-CEM leukemia,1.8 µM
same,TGI,CCRF-CEM leukemia,3.37 µM
same,GI50,COLO 205 colon,0.0566 µM
same,TGI,COLO 205 colon,1.01 µM
same,GI50,DU-145 prostate,3.49 µM
same,TGI,DU-145 prostate,15.3 µM
same,GI50,EKVX NSCLC,1.72 µM
same,TGI,EKVX NSCLC,4.29 µM
same,GI50,HCC-2998 colon,0.0847 µM
same,TGI,HCC-2998 colon,0.54 µM
same,GI50,HCT-15 colon,2.29 µM
same,TGI,HCT-15 colon,11.5 µM
same,GI50,HL-60(TB) leukemia,0.0375 µM
same,TGI,HL-60(TB) leukemia,0.808 µM
same,GI50,HOP-62 NSCLC,0.868 µM
same,TGI,HOP-62 NSCLC,6.43 µM
same,GI50,HOP-92 NSCLC,1.06 µM
same,TGI,HOP-92 NSCLC,2.41 µM
same,GI50,HS 578T breast,1.84 µM
same,TGI,HS 578T breast,6.16 µM
same,GI50,HT29 colon,0.279 µM
same,TGI,HT29 colon,10.3 µM
same,GI50,IGROV1 ovarian,1.08 µM
same,TGI,IGROV1 ovarian,2.81 µM
same,GI50,K-562 leukemia,1.75 µM
same,TGI,K-562 leukemia,10.7 µM
same,GI50,KM12 colon,0.414 µM
same,TGI,KM12 colon,3.93 µM
same,GI50,LOX IMVI melanoma,0.337 µM
same,TGI,LOX IMVI melanoma,1.69 µM
same,GI50,M14 melanoma,0.0349 µM
same,TGI,M14 melanoma,0.176 µM
same,GI50,MALME-3M melanoma,0.017 µM
same,TGI,MALME-3M melanoma,0.0448 µM
same,GI50,MCF7 breast,2.9 µM
same,TGI,MCF7 breast,10.7 µM
same,GI50,MDA-MB-231 breast,0.896 µM
same,TGI,MDA-MB-231 breast,2.96 µM
same,GI50,MDA-MB-435 melanoma,0.11 µM
same,TGI,MDA-MB-435 melanoma,6.03 µM
same,GI50,MDA-MB-468 breast,1.85 µM
same,TGI,MDA-MB-468 breast,3.55 µM
same,GI50,MOLT-4 leukemia,1.65 µM
same,TGI,MOLT-4 leukemia,3.02 µM
same,GI50,NCI-H226 lung,1.18 µM
same,TGI,NCI-H226 lung,4.32 µM
same,GI50,NCI-H23 lung,0.246 µM
same,TGI,NCI-H23 lung,1.91 µM
same,GI50,NCI-H322M lung,1.23 µM
same,TGI,NCI-H322M lung,6.8 µM
same,GI50,NCI-H460 NSCLC,1.38 µM
same,TGI,NCI-H460 NSCLC,11.4 µM
same,GI50,NCI-H522 lung,1.82 µM
same,TGI,NCI-H522 lung,4.09 µM
same,GI50,NCI/ADR-RES ovarian,1.74 µM
same,TGI,NCI/ADR-RES ovarian,3.69 µM
same,GI50,OVCAR-3 ovarian,1.64 µM
same,TGI,OVCAR-3 ovarian,3.32 µM
same,GI50,OVCAR-4 ovarian,1.49 µM
same,TGI,OVCAR-4 ovarian,5.03 µM
same,GI50,OVCAR-5 ovarian,0.304 µM
same,TGI,OVCAR-5 ovarian,2.65 µM
same,GI50,OVCAR-8 ovarian,1.92 µM
same,TGI,OVCAR-8 ovarian,4.82 µM
same,GI50,PC-3 prostate,3.5 µM
same,TGI,PC-3 prostate,11.8 µM
same,GI50,RPMI-8226 leukemia,0.277 µM
same,TGI,RPMI-8226 leukemia,1.78 µM
same,GI50,RXF 393 renal,2.11 µM
same,TGI,RXF 393 renal,11.6 µM
same,GI50,SF-268 CNS,3.18 µM
same,TGI,SF-268 CNS,14.7 µM
same,GI50,SF-295 CNS,2.25 µM
same,TGI,SF-295 CNS,6.09 µM
same,GI50,SF-539 CNS,1.62 µM
same,TGI,SF-539 CNS,3.61 µM
same,GI50,SK-MEL-28 melanoma,0.0352 µM
same,TGI,SK-MEL-28 melanoma,0.208 µM
same,GI50,SK-MEL-5 melanoma,0.104 µM
same,TGI,SK-MEL-5 melanoma,1.58 µM
same,GI50,SK-OV-3 ovarian,3.16 µM
same,TGI,SK-OV-3 ovarian,13.3 µM
same,GI50,SN12C renal,1.04 µM
same,TGI,SN12C renal,4.43 µM
same,GI50,SNB-19 CNS,1.34 µM
same,TGI,SNB-19 CNS,5.8 µM
same,GI50,SNB-75 CNS,1.88 µM
same,TGI,SNB-75 CNS,9.45 µM
same,GI50,SR leukemia,1.65 µM
same,TGI,SR leukemia,3.26 µM
same,GI50,SW-620 colon,0.105 µM
same,TGI,SW-620 colon,1.87 µM
same,GI50,T-47D breast,2.35 µM
same,TGI,T-47D breast,7.06 µM
same,GI50,TK-10 renal,1.91 µM
same,TGI,TK-10 renal,5.84 µM
same,GI50,U251 glioblastoma,2.11 µM
same,TGI,U251 glioblastoma,8.04 µM
same,GI50,UACC-257 melanoma,0.046 µM
same,TGI,UACC-257 melanoma,0.234 µM
same,GI50,UACC-62 melanoma,0.04 µM
same,TGI,UACC-62 melanoma,0.259 µM
same,GI50,UO-31 renal,2.34 µM
same,TGI,UO-31 renal,> 100 µM
